What was measured:
[1] = tested on: human uterine leiomyoma xenografts; assay: Xenograft of human uterine leiomyoma in immunodeficient mice, graft weight; format: in vivo; conditions: 60 d, SCID mice with E2 and P pellets, p<0.05
Procedure: Human uterine leiomyoma (UL) tissue was derived from any form of surgical intervention indicated for the respective diagnosis, either by hysterectomy with subsequent preparation of the tissues or by myomenucleation with or without morcellation for removal of the tissue from the abdominal cavity. Immediately after the surgery the UL tissue was placed into an appropriate sterile buffer (Vitron V7 buffer (U.S. Pat. No. 5,328,821) or Viaspan buffer for organ transplantation) at 4° C. for transport from the clinic. Under a sterile workbench, the UL tissue was cut into small pieces of 2×2×2 mm while keeping the tissue constantly moist. The small pieces of tissue were placed in tissue wells with PBS at room temperature for xenotransplantation. (M Fritsch et al. 2010, ISGE abstract & presentation). […] Therefore, graft weight was taken as a primary read-out parameter for growth of UL tissue (FIGS. 5 and 6). […]
(§1) Experiment 2 (the Thioxoimidazolidine Derivative as Androgen Receptor Antagonist)—FIGS. 6 and 7 • Human myoma tissue from two different patients was grafted s.c. in SCID mice; and the mice were treated as described in method above. […] BrdU positive nuclei were visualized by immunohistochemical staining in formalin-fixed graft sections, pictures were taken, and BrdU-positive nuclei per area were counted using the MIRAX Histoquant software (3DHISTECH Ltd, Budapest, Hungary). […]

[2] = tested on: Eker rat leiomyoma tumor-derived cells (Elt3); assay: Proliferation of Eker rat leiomyoma tumor-derived cells (Elt3), CellTiter-Glo viability assay; format: cell-based; conditions: for proliferation of Eker rat myoma cell line (Elt3): different concentrations, 7 days incubation, FIG. 1 and FIG. 2, range comparable to estradiol
Procedure: Elt3 cells were obtained from Cheryl Walker (University of Texas). In comparison to other cells, Elt3 cells were characterized to be tumorigenic in nude mice (C. Walker, Recent Prog. Horm. Res., January 2002; 57: 277). Elt3 cells were grown to confluence in T-75 flasks with DMEM containing 10% FCS at 37° C. and 5% CO2. The medium was changed into 1% CCS for 24 h. 1000 cells were seeded in 96-well-plates for 24 hours. Elt3 cells were incubated with test compounds for 7 days. The CellTiter-Glo® Luminescent Cell Viability Assay (Promega) was used for determination of the number of viable cells in culture based on quantitation of the ATP present, an indicator of metabolically active cells.
Elt3 cells were obtained and grown to confluence and were seeded as described above. Elt3 cells were incubated with test compounds for 7 days. The CellTiter-Glo® Luminescent Cell Viability Assay (Promega) was used for determination of the number of viable cells in culture based on quantitation of the ATP present, an indicator of metabolically active cells.

primary myoma cells = assay: Proliferation of primary myoma cells, CellTiter-Glo viability assay; format: cell-based, human; conditions: 10^−6 M, 7 days; p<0.05 vs. DMSO; FIG. 3; range comparable to estradiol
[3] = tested on: human uterine leiomyoma xenografts; assay: Human xenograft cell proliferation (BrdU positive nuclei) in immunodeficient mice; format: in vivo; conditions: last week of Experiment 2, 15 mg/kg/d p.o. daily; two donors; FIG. 7
Procedure: Human uterine leiomyoma (UL) tissue was derived from any form of surgical intervention indicated for the respective diagnosis, either by hysterectomy with subsequent preparation of the tissues or by myomenucleation with or without morcellation for removal of the tissue from the abdominal cavity. Immediately after the surgery the UL tissue was placed into an appropriate sterile buffer (Vitron V7 buffer (U.S. Pat. No. 5,328,821) or Viaspan buffer for organ transplantation) at 4° C. for transport from the clinic. Under a sterile workbench, the UL tissue was cut into small pieces of 2×2×2 mm while keeping the tissue constantly moist. The small pieces of tissue were placed in tissue wells with PBS at room temperature for xenotransplantation. (M Fritsch et al. 2010, ISGE abstract & presentation). […] Therefore, graft weight was taken as a primary read-out parameter for growth of UL tissue (FIGS. 5 and 6).
as §1

For `CC(O)(CS(=O)(=O)c1ccc(F)cc1)C(=O)Nc1ccc(C#N)c(C(F)(F)F)c1` (stereo not drawn) [bicalutamide, N-[4-cyano-3-(trifluoromethyl)phenyl]-3-[(4-fluorophenyl)sulfonyl]-2-hydroxy-2-methylpropanamide], the “graft weight reduction vs. respective controls” value ([1]; Experiment 1: 15 mg/kg/d p.o. every 2nd day, tissue from three patients, FIG. 5) was over 30% and the “effect on DHT-induced proliferation of Elt3 cells” value ([2]; 10^−7 M bicalutamide with 10^−9 M DHT, p<0.05 vs. DHT, FIG. 4) was “abolished”.
With `C[C@]12CCC(=O)C[C@@H]1CC[C@@H]1[C@@H]2CC[C@]2(C)[C@@H](O)CC[C@@H]12` [dihydrotestosterone, 5α-dihydrotestosterone] the “proliferation of Elt3 cells” value ([2]; 10^−9 M DHT, 7 days, p<0.05 vs. DMSO, FIG. 4) was “significantly increased”, the “proliferation of Eker rat myoma cell line (Elt3)” value [2] was “dose-dependent increase of proliferation” and the “proliferation of primary myoma cells” value (primary myoma cells) was “significantly induce an increase of proliferation”.
In the case of `C[C@]12CC[C@H]3[C@@H](CCC4=CC(=O)CC[C@@]43C)[C@@H]1CC[C@@H]2O` [testosterone], the “proliferation of Eker rat myoma cell line (Elt3)” value [2] is reported as “dose-dependent increase of proliferation” and the “proliferation of primary myoma cells” value (primary myoma cells) is reported as “significantly induce an increase of proliferation”.
For `CC(C)(O)COc1ccc(CN2C(=S)N(c3ccc(C#N)c(C(F)(F)F)c3)C(=O)C2(C)C)cn1` [thioxoimidazolidine derivative, 4-(3-{[6-(2-hydroxy-2-methylpropoxy)pyridin-3-yl]methyl}-4,4-dimethyl-5-oxo-2-thioxoimidazolidin-1-yl)-2-(trifluoromethyl)benzonitrile], the “graft weight reduction vs. respective controls” value ([1]; Experiment 2: 15 mg/kg/d p.o. daily, tissue from two patients, FIG. 6) was over 50% and the “proliferation of grafts (BrdU-positive nuclei per area)” value [3] was “clearly reduced”.

From patent US20120238533A1, “(Heteroarylmethyl) Thiohydantoins as anticancer drugs” (BAYER PHARMA AKTIENGESELLSCHAFT, priority 2009, published 2012)
